Laboratory results reported in article PMC5681660, “Reduced hepatitis B and D viral entry using clinically applied drugs as novel inhibitors of the bile acid transporter NTCP” (Scientific Reports, 2017).
Structures can show the parent of a compound that is named as a salt. Where two headings read alike, the source gives them in different places. Non-standard residues stand in square brackets, D forms with d. Residues, ends and D or L forms follow the SMILES beside them. pGlu = O=C1CC[C@@H](C(=O)O)N1; Thz = O=C(O)[C@@H]1CSCN1

Tests used:
[1] = target: T1, human NTCP (Homo sapiens, UniProt Q14973); assay: Screening fluorescent competitive Myrcludex B-FITC binding assay (96-well, 10 µM drug)
T1 sequence (Q14973 1-349): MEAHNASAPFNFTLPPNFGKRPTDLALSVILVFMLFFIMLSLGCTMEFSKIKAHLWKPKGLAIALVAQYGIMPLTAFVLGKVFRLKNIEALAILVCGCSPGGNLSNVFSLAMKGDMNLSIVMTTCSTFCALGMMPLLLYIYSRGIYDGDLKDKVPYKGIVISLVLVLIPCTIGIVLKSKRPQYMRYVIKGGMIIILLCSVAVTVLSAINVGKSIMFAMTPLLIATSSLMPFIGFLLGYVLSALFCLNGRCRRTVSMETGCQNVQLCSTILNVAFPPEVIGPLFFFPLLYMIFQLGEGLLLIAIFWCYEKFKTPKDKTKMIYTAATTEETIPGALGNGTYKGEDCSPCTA

[2] = target: T1, human NTCP; assay: Screening taurocholate uptake assay (96-well, [14C]taurocholate, 10 µM drug)
[3] = Prestwick library screen, Myrcludex B-FITC binding, 10 µM drug
[4] = Prestwick library screen, taurocholate uptake, 10 µM drug
[5] = ranking score beside the functional and binding assay B-scores of the screen
[6] = screen, 10 µM drug, Myrcludex B-FITC binding
[7] = combined ranking from functional and binding screening assays
[8] = screen, 10 µM drug, taurocholate uptake
[9] = Prestwick library screen, 10 µM drug, B-score of Myrcludex B-FITC binding
[10] = Prestwick library screen, 10 µM drug, B-score of taurocholate uptake
[11] = combined ranking from functional and binding assay B-scores

| Compound | B-score binding assay [1, 6] | B-score functional assay [2, 8] | B-score binding assay [1, 9] | B-score functional assay [2, 10] | Ranking score [2, 11] | also measured |
| --- | --- | --- | --- | --- | --- | --- |
| CCN(CCO)CCCC(C)Nc1ccnc2cc(Cl)ccc12 (centres unmarked) [Hydroxychloroquine sulfate] |  |  |  |  |  | B-score binding assay [1, 3]: 0.139; B-score functional assay [2, 4]: 0.168; Ranking score [2, 5]: 775.907 |
| CC(C)C[C@H]1C(=O)N2CCC[C@H]2[C@]2(O)O[C@](NC(=O)[C@@H]3C=C4c5cccc6[nH]c(Br)c(c56)C[C@H]4N(C)C3)(C(C)C)C(=O)N12.CS(=O)(=O)O [Bromocryptine mesylate] | -0.252 | -0.957 |  |  |  | Ranking score [2, 7]: 349.571 |
| COc1ccc(C[C@@H](C)NC[C@H](O)c2ccc(O)c(NC=O)c2)cc1.COc1ccc(C[C@@H](C)NC[C@H](O)c2ccc(O)c(NC=O)c2)cc1.O=C(O)/C=C/C(=O)O [Formoterol fumarate] |  |  |  |  |  | B-score binding assay [1, 3]: -0.165; B-score functional assay [2, 4]: 1.513; Ranking score [2, 5]: 764.904 |
| CCOC(=O)C1=C(C)NC(C)=C(C(=O)OCC)C1c1ccccc1/C=C/C(=O)OC(C)(C)C [Lacidipine] |  |  | 1.528 | 0.194 | 957.497 |  |
| CNCCC(Oc1ccccc1OC)c1ccccc1 (centres unmarked) [Nisoxetine hydrochloride] |  |  |  |  |  | B-score binding assay [1]: -0.726; B-score functional assay [2]: -0.598; Ranking score [2]: 324.321 |
| Cc1onc(-c2ccccc2)c1C(=O)N[C@@H]1C(=O)N2[C@@H]1SC(C)(C)[C@@H]2C(=O)[O-].[Na+] [Oxacillin sodium] |  |  | 0.083 | 0.869 | 869.572 |  |
| Cc1ccsc1/C=C/C1=NCCCN1C [Morantel tartrate] | -0.484 | -0.483 |  |  |  | Ranking score [2, 7]: 381 |
| Tyloxapol | 0.59 | -1.163 |  |  |  |  |
| CN(c1nccc(=O)[nH]1)C1CCN(c2nc3ccccc3n2Cc2ccc(F)cc2)CC1 [Mizolastine] |  |  | 0.089 | 0.906 | 877.518 |  |
| CC1CS(=O)(=O)CCN1/N=C/c1ccc([N+](=O)[O-])o1 (centres unmarked) [Nifurtimox] | -0.222 | -0.767 |  |  |  | Ranking score [2, 7]: 381.366 |
| CCN(CC)C(=O)/C(C#N)=C/c1cc(O)c(O)c([N+](=O)[O-])c1 [Entacapone] | -0.647 | -0.441 |  |  |  | Ranking score [2, 7]: 366.148 |
| Cc1nc2ccc(CN(C)c3ccc(C(=O)N[C@@H](CCC(=O)O)C(=O)O)s3)cc2c(=O)[nH]1 [Raltitrexed] | 0.04 | -1.033 |  |  |  | Ranking score [2, 7]: 413.367 |
| Norgestrel-(-)-D |  |  |  |  |  | B-score binding assay [1, 3]: 0.069; B-score functional assay [2, 4]: 0.036; Ranking score [2, 5]: 704.84 |
| CN(C)/N=N/c1[nH]cnc1C(N)=O [Dacarbazine] |  |  | 1.762 | 0.084 | 928.431 |  |
| CN1C(=O)OC(C)(C)C1=O [Trimethadione] |  |  | 0.001 | 1.466 | 860.791 |  |
| CCCCC1C(=O)N(c2ccccc2)N(c2ccccc2)C1=O [Phenylbutazone] | -0.956 | 0.138 |  |  |  | Ranking score [2, 7]: 440.765 |
| CN(C)CC/C=C1/c2ccccc2COc2ccc(CC(=O)O)cc21 [Olopatadine hydrochloride] |  |  | 0.808 | 1.227 | 1048.28 |  |
| O=C1CC[C@@H](C(=O)N2CSC[C@H]2C(=O)O)N1 [Pidotimod] ([pGlu]-[Thz]-OH) |  |  | 0.063 | 1.132 | 884.212 |  |
| CC(=O)Nc1c(I)c(C(=O)N[C@H]2C(O)O[C@H](CO)[C@@H](O)[C@@H]2O)c(I)c(N(C)C(C)=O)c1I (some centres unmarked) [Metrizamide] |  |  |  |  |  | B-score binding assay [1, 3]: 0.138; B-score functional assay [2, 4]: 0.395; Ranking score [2, 5]: 816.081 |
| CN(C)CC/C=C1/c2ccccc2Sc2ccc(Cl)cc21 [Chlorprothixene hydrochloride] |  |  |  |  |  | B-score binding assay [1, 3]: -0.184; B-score functional assay [2, 4]: 0.429; Ranking score [2, 5]: 661.498 |
| Deoxycorticosterone | -0.204 | -0.349 |  |  |  | Ranking score [2, 7]: 460.68 |
| CC(=O)CC(c1ccccc1)c1c(O)c2ccccc2oc1=O (centres unmarked) [Warfarin] | 0.123 | -1.345 |  |  |  | Ranking score [2, 7]: 391.491 |
| COc1cc(C(=O)N2CCOCC2)cc(OC)c1OC [Trimetozine] |  |  | 0.441 | 0.651 | 925.93 |  |
| CCCN(CCC)S(=O)(=O)c1ccc(C(=O)O)cc1 [Probenecid] |  |  |  |  |  | B-score binding assay [1, 3]: 0.597; B-score functional assay [2, 4]: -0.194; Ranking score [2, 5]: 677.591 |

| Compound | B-score binding assay [1, 6] | B-score functional assay [2, 8] | B-score binding assay [1, 9] | B-score functional assay [2, 10] | Ranking score [2, 11] | also measured |
| --- | --- | --- | --- | --- | --- | --- |
| Clc1ccc(C(Cn2ccnc2)OCc2c(Cl)cccc2Cl)c(Cl)c1 (centres unmarked) [Isoconazole] |  |  | 2.982 | 0.797 | 1126.41 |  |
| Clc1ccc(C(Cn2ccnc2)OCc2csc3c(Cl)cccc23)c(Cl)c1 (centres unmarked) [Sertaconazole nitrate] |  |  |  |  |  | B-score binding assay [1, 3]: 0.814; B-score functional assay [2, 4]: -0.094; Ranking score [2, 5]: 730.855 |
| O=C1[C@H]2CCCC[C@H]2C(=O)N1CCCCN1CCN(c2nsc3ccccc23)CC1 [Perospirone] |  |  | 1.438 | 0.093 | 917.333 |  |
| Cc1nc2n(c(=O)c1CCN1CCC(c3noc4cc(F)ccc34)CC1)CCCC2 [Risperidone] |  |  | 1.724 | 0.025 | 888.472 |  |
| Cl.O=c1[nH]oc2c1CCNC2 [THIP Hydrochloride] | -1.136 | 0.28 |  |  |  | Ranking score [2, 7]: 426.394 |
| CCN1CCN(c2cc3c(cc2F)c(=O)c(C(=O)O)cn3C2CC2)CC1 [Enrofloxacin] |  |  |  |  |  | B-score binding assay [1, 3]: 0.083; B-score functional assay [2, 4]: 0.028; Ranking score [2, 5]: 706.109 |
| O=C(O)c1ccccc1OP(=O)(O)O [Fosfosal] | -0.072 | -0.869 |  |  |  | Ranking score [2, 7]: 393.853 |
| O=C(O)CNC(=O)C(CS)Cc1ccccc1 (centres unmarked) [Thiorphan] |  |  | 2.652 | 0.09 | 959.982 |  |
| COc1ccccc1N1CCN(CCCNc2cc(=O)n(C)c(=O)n2C)CC1 [Urapidil hydrochloride] |  |  | 1.015 | 0.807 | 1027.42 |  |
| COC(=O)C1=C(C#N)NC(C)=C(C(=O)OC(C)C)C1c1cccc([N+](=O)[O-])c1 (centres unmarked) [Nilvadipine] | 2.397 | -2.135 |  |  |  | Ranking score [2, 7]: 384.686 |
| CCOC(=O)C1=C(COCCN)NC(C)=C(C(=O)OC)C1c1ccccc1Cl (centres unmarked) [Amlodipine] |  |  | 2.427 | 0.5 | 1057.69 |  |
| CN(C)CCN(Cc1ccc(Cl)cc1)c1ccccn1.Cl [Chloropyramine hydrochloride] | 2.853 | -2.146 |  |  |  | Ranking score [2, 7]: 387.298 |
| CCC(Cc1c(I)cc(I)c(N)c1I)C(=O)O (centres unmarked) [Iopanoic acid] | 1.953 | -1.985 |  |  |  | Ranking score [2, 7]: 395.161 |
| CC(=O)OCC1=C(C(=O)O)N2C(=O)[C@@H](N)[C@H]2SC1 [Cephalosporanic acid, 7-amino] |  |  | 0.15 | 0.531 | 845.501 |  |
| CCn1cc(C(=O)O)c(=O)c2cc(F)c(N3CCNC(C)C3)c(F)c21 (centres unmarked) [Lomefloxacin hydrochloride] |  |  |  |  |  | B-score binding assay [1, 3]: 0.323; B-score functional assay [2, 4]: 0.226; Ranking score [2, 5]: 831.882 |
| O=C1C(O)=C([C@H]2CC[C@H](c3ccc(Cl)cc3)CC2)C(=O)c2ccccc21 [Atovaquone] |  |  |  |  |  | B-score binding assay [1, 3]: 0.68; B-score functional assay [2, 4]: -0.283; Ranking score [2, 5]: 659.659 |
| CN(C)CCCSC(=N)N.Cl.Cl [Dimaprit dihydrochloride] |  |  | 1.724 | 0.472 | 1022.56 |  |
| C1CCc2nnnn2CC1 [Pentylenetetrazole] |  |  |  |  |  | B-score binding assay [1, 3]: -0.037; B-score functional assay [2, 4]: 0.223; Ranking score [2, 5]: 696.951 |
| NNC(=O)c1ccncc1 [Isoniazid] |  |  | 1.337 | 1.386 | 1117.92 |  |
| C[C@@]1(O)CCOC(=O)C1 [Mevalonic-D, L acid lactone] |  |  | 0.161 | 0.673 | 868.822 |  |
| Cl.NC1CCN(c2nc3c(cc2F)c(=O)c(C(=O)O)cn3-c2ccc(F)cc2F)C1 (centres unmarked) [Tosufloxacin hydrochloride] |  |  |  |  |  | B-score binding assay [1, 3]: 0.338; B-score functional assay [2, 4]: 0.009; Ranking score [2, 5]: 746.768 |
| CN(C)CCC=C1c2ccccc2CCc2ccccc21.Cl [Amitryptiline hydrochloride] |  |  |  |  |  | B-score binding assay [1, 3]: 2.835; B-score functional assay [2, 4]: -0.217; Ranking score [2, 5]: 769.935 |
| Cn1c([N+](=O)[O-])cnc1COC(N)=O [Ronidazole] | -0.252 | -0.446 |  |  |  | Ranking score [2, 7]: 432.42 |
